The target in the experiment is T1, mAChR M1 (UniProt P11229).
T1 sequence (P11229 1-460): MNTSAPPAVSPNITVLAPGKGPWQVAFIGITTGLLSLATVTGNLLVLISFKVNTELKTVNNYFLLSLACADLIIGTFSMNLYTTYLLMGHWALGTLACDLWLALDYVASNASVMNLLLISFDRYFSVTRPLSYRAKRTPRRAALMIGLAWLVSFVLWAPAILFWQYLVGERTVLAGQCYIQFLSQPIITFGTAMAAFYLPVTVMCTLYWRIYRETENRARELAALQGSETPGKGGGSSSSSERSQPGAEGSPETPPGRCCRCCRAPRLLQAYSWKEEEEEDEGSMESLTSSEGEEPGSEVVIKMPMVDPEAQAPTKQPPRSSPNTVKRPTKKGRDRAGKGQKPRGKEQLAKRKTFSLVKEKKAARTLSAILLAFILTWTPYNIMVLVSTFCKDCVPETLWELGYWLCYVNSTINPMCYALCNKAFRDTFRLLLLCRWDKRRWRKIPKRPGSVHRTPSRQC
Briefly: mAChR M1 cell-based functional assay (calcium mobilization, potentiation of EC20 acetylcholine response). To be noted: for EC50: CHO-K1 cells expressing mAChR M1, increase in EC20 acetylcholine response, >10 μM estimated where no plateau in the curve. How it is done:
Chinese hamster ovary (CHO-K1) cells stably expressing rat (r)M1 were purchased from the American Type Culture Collection and cultured according to their indicated protocol. […] To make stable rM2, hM2, rM3, hM4, and rM4 cell lines for use in calcium mobilization assays, these cells also were stably transfected with a chimeric G-protein (Gqi5) (provided by B. R. Conklin, University of California, San Francisco) using Lipofectamine 2000. rM1, hM1, rM3, hM3, rM5, and hM5 cells were grown in Ham's F-12 medium containing 10% heat-inactivated fetal bovine serum (FBS), 20 mM HEPES, and 50 μg/mL G418 sulfate. rM2-Gqi5, hM2-Gqi5, and hM4-Gqi5 cells were grown in the same medium also containing 500 μg/mL Hygromycin B. Stable rM4-Gqi5 cells were grown in DMEM containing 10% heat-inactivated FBS, 20 mM HEPES, 400 μg/mL G418 sulfate, and 500 μg/mL Hygromycin B.
For high throughput measurement of agonist-evoked increases in intracellular calcium, CHO-K1 cells stably expressing muscarinic receptors were plated in growth medium lacking G418 and hygromycin at 15,000 cells/20 μL/well in Greiner 384-well black-walled, tissue culture (TC)-treated, clear-bottom plates (VWR). Cells were incubated overnight at 37° C. and 5% CO2. […] Compound master plates were formatted in an 11 point CRC format (1:3 dilutions) in 100% DMSO with a starting concentration of 10 mM using the BRAVO liquid handler (Agilent). Test compound CRCs were then transferred to daughter plates ([…]) using the Echo acoustic plate reformatter (Labcyte, Sunnyvale, Calif.) and then diluted into assay buffer (40 μL) to a 2× stock using a Thermo Fisher Combi (Thermo Fisher Scientific, Waltham, Mass.).
Calcium flux was measured using the Functional Drug Screening System (FDSS) 6000 (Hamamatsu Corporation, Tokyo, Japan) as an increase in the fluorescent static ratio. Compounds were applied to cells (20 μL, 2×) using the automated system of the FDSS 6000 at 4 s into the 300 s protocol and the data were collected at 1 Hz. […] Agonist activity was analyzed as a concentration-dependent increase in calcium mobilization upon compound addition. Positive allosteric modulator activity was analyzed as a concentration-dependent increase in the EC20 acetylcholine response. Antagonist activity was analyzed as a concentration-dependent decrease in the EC80 acetylcholine response. Concentration-response curves were generated using a four-parameter logistical equation in XLfit curve fitting software (IDBS, Bridgewater, N.J.) for Excel (Microsoft, Redmond, Wash.) or Prism (GraphPad Software, Inc., San Diego, Calif.).
The calcium mobilization assay was also used to determine “efficacy”. In the context of the assays carried out for the data in Table II, “efficacy” (% ACh at 30 μM) is defined as the maximal response in the calcium flux as determined by the sigmoidal curve fit of the concentration response curve, or in the absence of an acceptable curve fit, the response recorded at 30 μM test compound, stated as a percentage of the response elicited by a concentration of Ach that induces approximately 80% of a maximal (i.e. saturating) ACh response.
Substituted benzylspiroindolin-2-one analogs were synthesized as described above. Activity (EC50 and Emax) was determined in the mAChR M1 cell-based functional assay as described above and the data are shown in Table III. The compound number corresponds to the compound numbers used in Tables I and II.

Results on 31 compounds are retold here after patent publication US9073935B2, “Substituted benzylspiroindolin-2-one analogs as positive allosteric modulators of the muscarinic acetylcholine receptor M1” (VANDERBILT UNIVERSITY, priority 2011, dated 2015).

Broadly, the Emax is the maximal effect, on the per cent scale that the assay sets. For orientation: EC50 means the concentration that produces a half-maximal response.

Like-named read-outs stand apart in the source and are kept apart here.

Turning to `CCn1cc(-c2ccc(CN3C(=O)C4(CCN(C5CCCC5)C4)c4ccccc43)c(F)c2)cn1` (centres unmarked) [Compound B17], the EC50 is 2.8 µM. Besides, the maximal response (Emax) (% ACh maximum at 30 μM) came out at 45%.
For `Cn1cc(-c2ccc(CN3C(=O)C4(CCN(C5CCCCC5)C4)c4ccccc43)c(F)c2)cn1` (single isomer, unassigned) [Compound B58], the half-maximal effective concentration (EC50) was above 10 µM. Also, the Emax (% ACh maximum at 30 μM) came out at 39%.
For `Cn1cc(-c2ccc(CN3C(=O)C4(CCN(C5CCCOC5)C4)c4ccccc43)c(F)c2)cn1` (single isomer, unassigned) [Compound B34], the EC50 is 3.9 µM. In addition, where the note is “% ACh maximum at 30 μM”, the Emax is 28%.
Take `Cn1cc(-c2ccc(CN3C(=O)C4(CCN(CC5CC5)C4)c4ccccc43)c(F)c2)cn1` (centres unmarked) [Compound B11]: the EC50 is 2.4 µM. Besides, the Emax (% ACh maximum at 30 μM) is given as 60%.
For the compound `Cn1cc(-c2ccc(CN3C(=O)C4(CCN(C5CCC5)C4)c4ccccc43)c(F)c2)cn1` (centres unmarked) [Compound B14], the concentration giving a half-maximal response (EC50) is 2.6 µM. In addition, the maximum response (Emax) (% ACh maximum at 30 μM) is recorded as 58%.
Regarding `Cn1cc(-c2ccc(CN3C(=O)C4(CCN(c5ncccn5)C4)c4ccccc43)c(F)c2)cn1` (centres unmarked) [Compound B7, 1-(2-fluoro-4-(1-methyl-1H-pyrazol-4-yl)benzyl)-1′-(pyrimidin-2-yl)spiro[indoline-3,3′-pyrrolidin]-2-one], the EC50 is 1.9 µM. The Emax (% ACh maximum at 30 μM) amounted to 63%.
In the case of `Cn1cc(-c2cc(F)c(CN3C(=O)C4(CCN(C5CCCC5)C4)c4ccccc43)c(F)c2)cn1` (centres unmarked) [Compound B4], the EC50 is 1.7 µM. Besides, the Emax (% ACh maximum at 30 μM) was found to be 72%.
Consider `Cn1cc(-c2ccc(CN3C(=O)C4(CCN(C(=O)c5ccccc5)C4)c4ccccc43)c(F)c2)cn1` (single isomer, unassigned) [Compound B45], for which the EC50 is 5.3 µM. Further, the Emax (% ACh maximum at 30 μM) was 38%.
In the same order, the values of `Cn1cc(-c2ccc(CN3C(=O)C4(CCCO4)c4ccccc43)cc2)cn1` (centres unmarked) [Compound B56, 1′-(4-(1-methyl-1H-pyrazol-4-yl)benzyl)-4,5-dihydro-3H-spiro[furan-2,3′-indolin]-2′-one] are 7.8 µM and 45%.
In the same order, the values of `Cn1cc(-c2ccc(CN3C(=O)C4(CCN(C5CCCOC5)C4)c4ccccc43)c(F)c2)cn1` (centres unmarked) [Compound B19] are 2.9 µM and 62%.
On the same counts, the results for `Cn1cc(-c2ccc(CN3C(=O)C4(CCN(C5CCCOC5)C4)c4ccccc43)c(F)c2)cn1` (single isomer, unassigned) [Compound B67] are above 10 µM and 44%.
For the compound `Cn1cc(-c2ccc(CN3C(=O)C4(CCN(C(=O)C5CC5)C4)c4ccccc43)c(F)c2)cn1` (centres unmarked) [Compound B41], the half-maximal effective concentration (EC50) is 4.9 µM. Besides, the maximum response (Emax) (% ACh maximum at 30 μM) worked out at 56%.
Turning to `Cn1cc(-c2ccc(CN3C(=O)C4(CCN(C(=O)c5ccccc5)C4)c4ccccc43)c(F)c2)cn1` (single isomer, unassigned) [Compound B47], the concentration for a half-maximal effect (EC50) was 5.8 µM. Also, the Emax (% ACh maximum at 30 μM) was 38%.
On to `Cn1cc(-c2ccc(CN3C(=O)C4(CCN(CC(F)F)C4)c4ccccc43)c(F)c2)cn1` (centres unmarked) [Compound B26, 1′-(2,2-difluoroethyl)-1-(2-fluoro-4-(1-methyl-1H-pyrazol-4-yl)benzyl)spiro[indoline-3,3′-pyrrolidin]-2-one], for which the maximal response (Emax) amounted to 53% and the EC50 is 3.4 µM.
On the same counts, the results for `Cn1cc(-c2ccc(CN3C(=O)C4(CCN(CCF)C4)c4ccccc43)c(F)c2)cn1` (centres unmarked) [Compound B23] are 63% and 3.2 µM.
As for `Cn1cc(-c2ccc(CN3C(=O)C4(CCN(C5CCCOC5)C4)c4ccccc43)c(F)c2)cn1` (single isomer, unassigned) [Compound B68], the EC50 is above 10 µM. Moreover, where the note is “% ACh maximum at 30 μM”, the Emax is 60%.
In the same order, the values of `CCN1CCC2(C1)C(=O)N(Cc1ccc(-c3cnn(C)c3)cc1F)c1ccccc12` (centres unmarked) [Compound B24] are 3.2 µM and 65%.
Regarding `CC1CCCC1N1CCC2(C1)C(=O)N(Cc1ccc(-c3cnn(C)c3)cc1F)c1ccccc12` (centres unmarked) [Compound B54], the EC50 was 7 µM. For the same compound, under “% ACh maximum at 30 μM”, the Emax is reported as 51%.
For `Cn1cc(-c2ccc(CN3C(=O)C4(CCN(C5CCCCC5F)C4)c4ccccc43)c(F)c2)cn1` (centres unmarked) [Compound B20], the EC50 is 3 µM. Also, where the note is “% ACh maximum at 30 μM”, the Emax is 67%.
`CN1CCC2(CC1)C(=O)N(Cc1c(F)cc(-c3ccc4c(c3)CC(=O)N4)cc1F)c1ccccc12` [Compound B78]: the 50% effective concentration (EC50) is 6.6 µM. Further, under “% ACh maximum at 30 μM”, the maximum response (Emax) was 38%.
Consider `Cn1cc2c(-c3cc(F)c(CN4C(=O)C5(CCN(C(=O)OC(C)(C)C)C5)c5ccccc54)c(F)c3)cccc2n1` (centres unmarked) [Compound B76], for which the EC50 is above 10 µM. In addition, the Emax (% ACh maximum at 30 μM) is listed as below 30%.
For the compound `CN1CCC2(C1)C(=O)N(Cc1c(F)cc(-c3cccc4nn(C)cc34)cc1F)c1ccccc12` (centres unmarked) [Compound B75], the 50% effective concentration (EC50) was 5.4 µM. Besides, the maximal response (Emax) (% ACh maximum at 30 μM) was found to be 66%.
On to `Cn1cc(-c2ccc(CN3C(=O)C4(CCN(C5COC5)CC4)c4ccccc43)c(F)c2)cn1` [Compound B55], for which the EC50 was 7 µM. Also, the maximal effect (Emax) (% ACh maximum at 30 μM) amounted to 45%.
As for `CN1CCC2(C1)C(=O)N(Cc1ccc(-c3cnn(C)c3)cc1F)c1ccccc12` (racemic) [Compound B18, 1-(2-fluoro-4-(1-methyl-1H-pyrazol-4-yl)benzyl)-1′-methylspiro[indoline-3,3′-pyrrolidin]-2-one], the EC50 is 2.9 µM. Moreover, where the note is “% ACh maximum at 30 μM”, the Emax is given as 62%.
`Cn1cc(-c2ccc(CN3C(=O)C4(CCN(C5CCCOC5)CC4)c4ccccc43)c(F)c2)cn1` (centres unmarked) [Compound B38]: the EC50 is 4.7 µM. Further, the Emax (% ACh maximum at 30 μM) worked out at 50%.
As for `Cn1cc(-c2ccc(CN3C(=O)C4(CCN(C5CCCCC5F)CC4)c4ccccc43)c(F)c2)cn1` (centres unmarked) [Compound B9], the EC50 is 2.3 µM. Moreover, the maximal response (Emax) (% ACh maximum at 30 μM) was found to be 32%.
Consider `Cn1cc(-c2ccc(CN3C(=O)C4(CCN(C5CCCC5)C4)c4ccccc43)cc2)cn1` (centres unmarked) [Compound B1], for which the EC50 is 1.3 µM. Besides, for the setting “% ACh maximum at 30 μM”, the Emax came to 43%.
In the case of `CN1CCC2(C1)C(=O)N(Cc1ccc(-c3cnn(C)c3)cc1F)c1ccccc12` (single isomer, unassigned) [Compound B31, 1-(2-fluoro-4-(1-methyl-1H-pyrazol-4-yl)benzyl)-1′-methylspiro[indoline-3,3′-pyrrolidin]-2-one], the EC50 was 3.8 µM. The maximum response (Emax) (% ACh maximum at 30 μM) is 76%.
For `Cn1cc(-c2ccc(CN3C(=O)C4(CCN(C(=O)C5CCC5)C4)c4ccccc43)c(F)c2)cn1` (centres unmarked) [Compound B51], the EC50 was 6.2 µM. Also, where the note is “% ACh maximum at 30 μM”, the maximum response (Emax) came out at 50%.
As to `CN1CCCC12C(=O)N(Cc1c(F)cc(-c3cccc4nn(C)cc34)cc1F)c1ccccc12` (centres unmarked) [Compound B80], the EC50 was above 10 µM. Further, where the note is “% ACh maximum at 30 μM”, the Emax is listed as below 30%.
In the same order, the values of `CN1CCCC12C(=O)N(Cc1ccc(-c3cnn(C)c3)cc1)c1ccccc12` (centres unmarked) [Compound B64, 1′-methyl-1-(4-(1-methyl-1H-pyrazol-4-yl)benzyl)spiro[indoline-3,2′-pyrrolidin]-2-one] are above 10 µM and 48%.
